# Reference: patent publication US4952580A, “Pesticidal polyhaloalkene derivatives” (priority 1988, dated 1990)
# Where two headings read alike, the source gives them in different places.
# Experiments:
# [1] = system: root-knot nematode (Meloidogyne incognita); experiment: Initial Root-Knot Nematicidal Activity; assay type: in vivo; details: 336 h, read-out: Percent Control; for pest or weed control at 0.313 ppm: Table 2, Application Rate 0.313 ppm; for pest or weed control at 0.625 ppm: Table 2, Application Rate 0.625 ppm; for pest or weed control at 1.25 ppm: Table 2, Application Rate 1.25 ppm; for pest or weed control at 5 ppm: Table 2, Application Rate 5.0 ppm; for pest or weed control at 10 ppm: Table 2, Application Rate 10.0 ppm
# Method in brief: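 Compound incorporated into Meloidogyne incognita-infested soil at 10 ppm to 0.078 ppm, then planted with tomato or cucumber seedlings. Root galling scored two weeks after planting as a knot index and converted to percent control, given as averages.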
# root-knot nematode [2] = experiment: Residual Root-Knot Nematicidal Activity; assay type: in vivo, Meloidogyne incognita; details: read-out: Percent Control
# Procedure: (§1) Compounds of this invention were tested as follows for nematicidal and anthelmintic activity as dust formulations (initial and residual activity) and as acetone/water formulations (systemic activity). The formulations are described above.
# The ability of nematicidal compounds of the invention to control root-knot nematode infestations in soil over a period of time after treatment was evaluated. Dust formulations of test compound (5%) were incorporated into soil samples at test compound rates of 5 and 10 ppm. Subsequently, the treated soil samples were inoculated with nematode inoculum at weekly intervals, and Knot Index and Percent Control determined on seedlings planted in the soil samples. Specifically, soil treated with test compound was placed in 7.6 cm diameter fiber pots and stored in a greenhouse. At one, two and four weeks post-treatment, the appropriate number of pots was infested with root-knot nematode eggs and larvae. A cucumber or tomato seedling was planted in each pot and evaluated approximately two weeks after the soil infestation to obtain the test results reported in Tables 3 and 3a appended.
# lesion nematode = experiment: Lesion Nematode Test; assay type: in vivo; details: Table 5, read-out: Percent Control; for pest or weed control at 2.5 ppm: rate 2.5 ppm; for pest or weed control at 5 ppm: rate 5 ppm
# Method in brief: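 Run as the stunt nematode test but on pea seedlings; compounds applied as dust formulations (initial and residual activity) or acetone/water formulations (systemic activity), with untreated samples as reference. Percent control derived by formula.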
# cyst nematode = experiment: Cyst Nematode Test; assay type: in vivo; details: read-out: Percent Control; for pest or weed control at 5 ppm: Table 6, rate 5 ppm
# Procedure: as §1
# The procedures was substantially the same as described in the stunt nematode test except soybean seedlings were used. "Percent Control" (Table 6 appended) is as defined in the stunt nematode test results.
# root-knot nematode [3] = experiment: Soil Mobility against root-knot nematode; assay type: in vivo, Meloidogyne incognita; details: 336 h; for pest or weed control at 0.313 ppm: Table 7, 0.313 ppm; for pest or weed control at 0.625 ppm: Table 7, 0.625 ppm; for pest or weed control at 1.25 ppm: Table 7, 1.25 ppm; for pest or weed control at 2.5 ppm: Table 7, 2.5 ppm; for pest or weed control at 10 ppm: Table 7, 10 ppm
# Method in brief: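 Soil mobility of the nematicidal test material was evaluated by placing treated, nematode-infested soil in 8 cm plastic pots stacked above two or more pots of untreated infested soil, each containing a 10 cm^3 sand layer and filter paper discs. Fifteen cm of water was dripped through, pots drained 16-18 hours, then were planted with cucumber or tomato seedlings and scored for Percent Control.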
# stunt nematode = experiment: Stunt Nematode Test; assay type: in vivo; details: 672 h, Table 4, read-out: Percent Control; for pest or weed control at 5 ppm: rate 5 ppm
# Procedure: as §1
# The procedure was substantially the same as in the […] seedling, with subsequent inoculation of the soil with combined larvae and adult stunt nematodes. The samples were evaulated approximately four weeks after infestation. […] "Percent control" means the difference between average population counts between untreated and treated samples, divided by average population count of untreated sample, multiplied by 100.
# Caenorhabditis elegans = experiment: C. Elegans Nematode Screening Test and Evaluation (in-vitro); details: Caenorhabditis elegans
# Method in brief: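 Worms (10-15 per well) in buffer with E. coli food, ampicillin and mycostatin; compound added in DMSO, 2-3 replicates per rate. Incubated 5-6 days at 20° C. Population development scored against untreated wells, noting effects such as reduced egg hatch or molting disruption.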
# [4] = Table 2, Application Rate 2.5 ppm
# [5] = 168 h, Table 3, inoculation 1 week after treatment
# [6] = 336 h, Table 3, inoculation 2 weeks after treatment
# [7] = 672 h, Table 3, inoculation 4 weeks after treatment
# [8] = Table 7, 30 ppm, Bottom container, read-out: Percent Control
# [9] = Table 7, 30 ppm, Middle container, read-out: Percent Control
# [10] = Table 7, 30 ppm, Top container, read-out: Percent Control
# [11] = read-out: Percent Control, Table 7, 30 ppm, Middle container
# [12] = Bottom container, read-out: Percent Control
# [13] = Middle container, read-out: Percent Control
# [14] = Top container, read-out: Percent Control
structure (smiles),measurement,setting,value
"O=C(OCCC(F)=C(F)F)c1ccc([N+](=O)[O-])o1 [Compound 21, (3,4,4-trifluoro-3-butenyl) 5-nitro-2-furancarboxylate]",pest or weed control at 0.313 ppm,[1],0%
same,pest or weed control at 0.625 ppm,[1],8%
same,pest or weed control at 1.25 ppm,[1],31%
same,pest or weed control at 2.5 ppm,[1]; [4],64%
same,pest or weed control at 5 ppm,root-knot nematode [2]; [5],13%
same,pest or weed control at 5 ppm,root-knot nematode [2]; [6],8%
same,pest or weed control at 5 ppm,root-knot nematode [2]; [7],0%
same,pest or weed control at 2.5 ppm,lesion nematode,54%
same,pest or weed control at 2.5 ppm,cyst nematode,33%
same,pest or weed control at 30 ppm,root-knot nematode [3]; [8],99%
same,pest or weed control at 30 ppm,root-knot nematode [3]; [9],96%
same,pest or weed control at 30 ppm,root-knot nematode [3]; [10],100%
"CSc1nnc(SCCC(F)=C(F)F)s1 [Compound 2, 2-methylthio-5-(3,4,4-trifluoro-3-butenylthio)-1,3,4-thiadiazole]",pest or weed control at 0.313 ppm,[1],38%
same,pest or weed control at 0.625 ppm,[1],84%
same,pest or weed control at 1.25 ppm,[1],86%
same,pest or weed control at 2.5 ppm,[1]; [4],96%
same,pest or weed control at 5 ppm,[1],96%
same,pest or weed control at 10 ppm,[1],100%
same,pest or weed control at 2.5 ppm,[1],95%
same,pest or weed control at 5 ppm,root-knot nematode [2]; [5],98%
same,pest or weed control at 10 ppm,root-knot nematode [2]; [5],77%
same,pest or weed control at 5 ppm,root-knot nematode [2]; [6],38%
same,pest or weed control at 10 ppm,root-knot nematode [2]; [6],56%
same,pest or weed control at 5 ppm,root-knot nematode [2]; [7],42%
same,pest or weed control at 10 ppm,root-knot nematode [2]; [7],69%
same,pest or weed control at 5 ppm,stunt nematode,72%
same,pest or weed control at 5 ppm,lesion nematode,0%
same,pest or weed control at 5 ppm,cyst nematode,70%
same,pest or weed control at 30 ppm,root-knot nematode [3]; [8],25%
same,pest or weed control at 30 ppm,root-knot nematode [3]; [10],42%
same,pest or weed control at 30 ppm,root-knot nematode [3]; [11],33%
"FC(F)=C(F)CCSc1nsc(SCCC(F)=C(F)F)n1 [Compound 25, 3,5-di(3,4,4-trifluoro-3-butenylthio)-1,2,4-thiadiazole]",pest or weed control at 0.312 ppm,"[1]; Table 2, Application Rate 0.312 ppm",78%
same,pest or weed control at 0.625 ppm,[1],97%
same,pest or weed control at 1.25 ppm,[1],97%
same,pest or weed control at 2.5 ppm,[1]; [4],99%
same,pest or weed control at 5 ppm,"root-knot nematode [2]; 168 h, Table 3a, 5% dust, inoculation 1 week post-treatment",100%
same,pest or weed control at 5 ppm,"root-knot nematode [2]; 336 h, Table 3a, 5% dust, inoculation 2 weeks post-treatment",97%
same,pest or weed control at 5 ppm,"root-knot nematode [2]; 672 h, Table 3a, 5% dust, inoculation 4 weeks post-treatment",98%
same,pest or weed control at 2.5 ppm,lesion nematode,77%
same,pest or weed control at 5 ppm,cyst nematode,83%
same,pest or weed control at 5 ppm,"root-knot nematode [3]; Table 7a, 5% dust, 5 ppm, BOTTOM container, read-out: Percent Control",8%
same,pest or weed control at 5 ppm,"root-knot nematode [3]; Table 7a, 5% dust, 5 ppm, MIDDLE container, read-out: Percent Control",69%
same,pest or weed control at 5 ppm,"root-knot nematode [3]; Table 7a, 5% dust, 5 ppm, TOP container, read-out: Percent Control",100%
same,inhibition at 5 ppm,"Caenorhabditis elegans; Table 9 screen, 5 ppm, read-out: Percent Inhibition of Reproduction",100%
same,mortality at 5 ppm,"Caenorhabditis elegans; Table 9 screen, 5 ppm, read-out: Percent Mortality",75%
same,mortality at 5 ppm,"Caenorhabditis elegans; Table 10 evaluation, 5 ppm, read-out: Percent Mortality",100%
same,inhibition at 1.25 ppm,"Caenorhabditis elegans; Table 10 evaluation, 1.25 ppm, read-out: Percent Inhibition of Reproduction",17%
same,mortality at 1.25 ppm,"Caenorhabditis elegans; Table 10 evaluation, 1.25 ppm, read-out: Percent Mortality",0%
same,inhibition at 2.5 ppm,"Caenorhabditis elegans; Table 10 evaluation, 2.5 ppm, read-out: Percent Inhibition of Reproduction",58%
same,mortality at 2.5 ppm,"Caenorhabditis elegans; Table 10 evaluation, 2.5 ppm, read-out: Percent Mortality",0%
"O=C(CSCCC(F)=C(F)F)OCCC(F)=C(F)F [Compound 18, (3,4,4-trifluoro-3-butenyl) (3,4,4-trifluoro-3-butenylthio)acetate]",pest or weed control at 0.313 ppm,[1],0%
same,pest or weed control at 0.625 ppm,[1],19%
same,pest or weed control at 1.25 ppm,[1],38%
same,pest or weed control at 5 ppm,[1],99%
same,pest or weed control at 10 ppm,[1],100%
same,pest or weed control at 10 ppm,root-knot nematode [2]; [5],0%
same,pest or weed control at 10 ppm,root-knot nematode [2]; [6],0%
same,pest or weed control at 10 ppm,root-knot nematode [2]; [7],0%
same,pest or weed control at 5 ppm,lesion nematode,0%
same,pest or weed control at 5 ppm,cyst nematode,8%
same,pest or weed control at 30 ppm,root-knot nematode [3]; [8],25%
same,pest or weed control at 30 ppm,root-knot nematode [3]; [9],25%
same,pest or weed control at 30 ppm,"root-knot nematode [3]; read-out: Percent Control, Table 7, 30 ppm, Top container",33%
"FC(F)=C(F)CCSC1=NCCS1 [Compound 1, 2-(3,4,4-trifluoro-3-butenylthio)-4,5-dihydrothiazole]",pest or weed control at 0.078 ppm,"[1]; Table 2, Application Rate 0.078 ppm",56%
same,pest or weed control at 0.313 ppm,[1],99%
same,pest or weed control at 0.625 ppm,[1],100%
same,pest or weed control at 1.25 ppm,[1],99%
same,pest or weed control at 2.5 ppm,[1]; [4],99%
same,pest or weed control at 5 ppm,[1],99%
same,pest or weed control at 10 ppm,[1],100%
same,pest or weed control at 0.156 ppm,[1],95%
same,pest or weed control at 5 ppm,root-knot nematode [2]; [5],99%
same,pest or weed control at 10 ppm,root-knot nematode [2]; [5],98%
same,pest or weed control at 5 ppm,root-knot nematode [2]; [6],63%
same,pest or weed control at 5 ppm,root-knot nematode [2]; [7],25%
same,pest or weed control at 5 ppm,stunt nematode,30%
same,pest or weed control at 10 ppm,stunt nematode; rate 10 ppm,61%
same,pest or weed control at 2.5 ppm,lesion nematode,0%
same,pest or weed control at 5 ppm,cyst nematode,94%
same,pest or weed control at 5 ppm,cyst nematode; whole cysts rather than homogenized cysts,79%
same,pest or weed control at 0.313 ppm,root-knot nematode [3]; [12],25%
same,pest or weed control at 0.313 ppm,root-knot nematode [3]; [13],75%
same,pest or weed control at 0.313 ppm,root-knot nematode [3]; [14],77%
same,pest or weed control at 0.625 ppm,root-knot nematode [3]; [12],77%
same,pest or weed control at 0.625 ppm,root-knot nematode [3]; [13],98%
same,pest or weed control at 0.625 ppm,root-knot nematode [3]; [14],97%
same,pest or weed control at 1.25 ppm,root-knot nematode [3]; [12],96%
same,pest or weed control at 1.25 ppm,root-knot nematode [3]; [13],99%
same,pest or weed control at 1.25 ppm,root-knot nematode [3]; [14],100%
same,pest or weed control at 2.5 ppm,root-knot nematode [3]; [12],100%
same,pest or weed control at 2.5 ppm,root-knot nematode [3]; [13],100%
same,pest or weed control at 2.5 ppm,root-knot nematode [3]; [14],100%
same,pest or weed control at 5 ppm,"root-knot nematode [3]; Table 7, 5 ppm, Bottom container, read-out: Percent Control",99%
same,pest or weed control at 5 ppm,"root-knot nematode [3]; Table 7, 5 ppm, Middle container, read-out: Percent Control",98%
same,pest or weed control at 5 ppm,"root-knot nematode [3]; Table 7, 5 ppm, Top container, read-out: Percent Control",100%
same,pest or weed control at 10 ppm,"root-knot nematode [3]; container 1 (Top), read-out: Percent Control",100%
same,pest or weed control at 10 ppm,"root-knot nematode [3]; container 2, read-out: Percent Control",100%
same,pest or weed control at 10 ppm,"root-knot nematode [3]; container 3, read-out: Percent Control",100%
same,pest or weed control at 10 ppm,"root-knot nematode [3]; container 4, read-out: Percent Control",99%
same,pest or weed control at 10 ppm,"root-knot nematode [3]; container 5, read-out: Percent Control",97%
same,pest or weed control at 10 ppm,"root-knot nematode [3]; container 6 (Bottom), read-out: Percent Control",42%
same,pest or weed control at 30 ppm,root-knot nematode [3]; [8],85%
same,pest or weed control at 30 ppm,root-knot nematode [3]; [10],97%
same,pest or weed control at 30 ppm,root-knot nematode [3]; [11],95%
